Reference: US20250387351A1 (SpringWorks Therapeutics, Inc, priority 2024, published 2025)

What was measured:
[1] = Pharmacokinetic parameters and characteristics of mirdametinib (Table A); type: in vivo, human
[2] = system: NF1-associated inoperable plexiform neurofibromas (PNs); assay: Phase 2b trial: response of target PN by BICR volumetric MRI per REiNS criteria; type: in vivo, human; details: for Confirmed Objective Response Rate per REiNS criteria by BICR, n (%): 24-cycle treatment phase, BSA-based BID dose, 3 weeks on/1 week off; for Confirmed Partial Response, n (%): PR = ≥20% reduction in PN volume; for DoR ≥12 months: Kaplan-Meier based, data cut-off September 2023
Procedure: Participants were screened (assessed for eligibility as described below). […] The median age was 34.5 years (range 18 to 69 years); 85% were white and 64% were female. […] The most commonly reported morbidities were pain (90%) and disfigurement or major deformity (52%).
The median age was 10 years (range 2 to 17 years); 66% were white and 54% were female. […] The most commonly reported morbidities were pain (70%) and disfigurement or major deformity (50%).
Study treatment was administered orally at a twice daily (BID) dose specified in the table below. Dosing was on a 28-day Cycle (4-week course) with a 3 week on/1 week off schedule. The treatment period will last for up to 24 Cycles followed by a 30-day Safety Follow-Up period.
A partial response was defined as PN decrease ≥20% compared to baseline using centrally read MRI volumetric analysis.
The major efficacy outcome measure was confirmed objective response rate (ORR), defined as the percentage of patients with complete response (disappearance of the target PN) or confirmed partial response (≥20% reduction in PN volume confirmed at a subsequent tumor assessment within 2-6 months during the 24-cycle treatment phase). Responses were assessed by blinded independent central review (BICR) using volumetric magnetic resonance imaging (MRI) analysis per Response Evaluation in Neurofibromatosis and Schwannomatosis (REiNS) criteria. A secondary efficacy objective was to determine the duration of response for patients who achieved a confirmed objective response.

[3] = geometric least squares mean ratio, food effect

O=C(NOC[C@H](O)CO)c1ccc(F)c(F)c1Nc1ccc(I)cc1F (single isomer, unassigned) [mirdametinib]
Tmax [median (range)] ([1]; Capsule): Capsule: 1.08 (0.00-4.17) hours post dose | Excretion: radioactivity in feces ([1]; In feces): In feces: 27% | Excretion: radioactivity in urine ([1]; In urine): In urine: 68% | Excretion: unchanged mirdametinib in urine ([1]; In urine): In urine: 0.7% | Excretion: unchanged mirdametinib in urine and feces ([1]; In urine and feces): In urine and feces: 9% | Tmax [median (range)] ([1]; Tablet): Tablet: 0.83 (0.42-3.02) hours post dose | Food effect [GMR % (90% CI)] AUCinf [1, 3]: 93% (90%, 96%) | Food effect [GMR % (90% CI)] Cmax [1, 3]: 57% (54%, 61%) | Time to steady-state ([1]; in vivo): Approximately 6 days | Confirmed Complete Response, n (%) ([2]; Adult (N = 58)): 0 n (%) | Confirmed Objective Response Rate per REiNS criteria by BICR, n (%) ([2]; Adult (N = 58)): 24 (41) n (%) | Confirmed Partial Response, n (%) ([2]; Adult (N = 58)): 24 (41) n (%) | DoR ≥12 months ([2]; Adult responders): 18 (75%) | Confirmed Complete Response, n (%) ([2]; Pediatric (N = 56)): 0 n (%) | Confirmed Objective Response Rate per REiNS criteria by BICR, n (%) ([2]; Pediatric (N = 56)): 29 (52) n (%) | Confirmed Partial Response, n (%) ([2]; Pediatric (N = 56)): 29 (52) n (%) | DoR ≥12 months ([2]; Pediatric responders): 22 (76%) | median time to onset of response ([2]; adult cohort (range: 4.0 months to 19.0 months)): 7.8 months | ORR also considering confirmed objective responses after cycle 24 ([2]; adults (95% CI: 32, 59)): 45% | median time to onset of response ([2]; pediatric cohort (range: 4.1 months to 18.8 months)): 7.9 months | ORR also considering confirmed objective responses after cycle 24 ([2]; pediatric patients (95% CI: 40, 67)): 54%
